Source: US20200270309A1, “MALEIMIDE GROUP-MODIFIED ANGIOGENESIS INHIBITOR HM-1 AND USE THEREOF” (NANJING ANJI BIOLOGICAL TECHNOLOGY CO., LTD, priority 2017, published 2020)
Marks after values point to notes of the source that are not given here. Peptide text beside a SMILES is read from it. * marks the point of attachment. X54 = O=C1C=CC(=O)N1c1cccc(CCCCCCC(=O)*)c1; X63 = O=C1C=CC(=O)N1c1ccccc1CCCCCCC(=O)*; X79 = O=C1C=CC(=O)N1c1cccc(CCC(=O)*)c1

Columns and labels:
[1] = tested on: adjuvant arthritis; experiment: Rat adjuvant arthritis (AA) animal model; assay type: in vivo, SD rats; conditions: 4.0 mg/kg; for Clinical score: intravenous in the tail once every five days from day 10, four paws scored 0-4, max 16, mean±SD; for Joint swelling degree / Left and right paw swelling degree: intravenous in the tail once every five days from day 10, mean±SD
[2] = tested on: retinal neovascularization (OIR model); experiment: Retinal vessels in OIR mice; assay type: in vivo, C57/B16 mice; conditions: for Area of neovascular plexus (mm^2): dose 0.05 μM in the vitreous chamber on day 13, retinal vessels evaluated on day 17; for Inhibition rate (%): dose 0.05 μM in the vitreous chamber on day 13, retinal vessels evaluated on day 17, vs negative control
Text: Establishment of an OIR model: Young mice and their mothers were exposed in a 75% hyperoxic environment from day 7 to day 12 after the birth of C57/B16 mice, which caused capillaries in their central retina to disappear rapidly. The mice were returned to the indoor air on day 12, retinal vessels exposed to hyperoxia quickly disappeared, causing extensive abnormal neoangiogenesis, and the central part of the retina remained largely avascular for a long time. After the blood vessels disappeared completely, the mice were injected with normal saline (a negative group), X1-X12, X13-X44, X45-X90 in the vitreous chamber on day 13 respectively, and retinal vessels were evaluated on day 17 ([…] of Texas red labeled tomato agglutinin was injected into the left ventricle to mark unclosed vessels and circulated for 5 min).

SMILES | Clinical score [1] | Joint swelling degree [1] [mm] | Left and right paw swelling degree [1] [mm] | Area of neovascular plexus (mm^2) [2] [mm^2] | Inhibition rate (%) [2]
C[C@H](NC(=O)CNC(=O)[C@H](CCCNC(=N)N)NC(=O)CCCCCCc1cccc(N2C(=O)C=CC2=O)c1)C(=O)N[C@@H](CC(=O)O)C(=O)N[C@@H](CCCNC(=N)N)C(=O)N[C@@H](C)C(=O)NCC(=O)NCC(=O)NCC(=O)NCC(=O)N[C@@H](CCCNC(=N)N)C(=O)NCC(=O)N[C@@H](CC(=O)O)C(=O)O [X30] (X54-RGADRAGGGGRGD-OH) | 5.73 ± 1.05 | 0.82 ± 0.12 | 3.76 ± 0.64 | 0.118 ± 0.012 | 44.34%*
C[C@H](NC(=O)CNC(=O)[C@H](CCCNC(=N)N)NC(=O)CCc1cccc(N2C(=O)C=CC2=O)c1)C(=O)N[C@@H](CC(=O)O)C(=O)N[C@@H](CCCNC(=N)N)C(=O)N[C@@H](C)C(=O)NCC(=O)NCC(=O)NCC(=O)NCC(=O)N[C@@H](CCCNC(=N)N)C(=O)NCC(=O)N[C@@H](CC(=O)O)C(=O)O [X26] (X79-RGADRAGGGGRGD-OH) | 5.65 ± 1.07 | 0.74 ± 0.18 | 3.81 ± 0.59 | 0.104 ± 0.001 | 50.94%**
C[C@H](NC(=O)CNC(=O)[C@H](CCCNC(=N)N)NC(=O)CCCCCCc1ccccc1N1C(=O)C=CC1=O)C(=O)N[C@@H](CC(=O)O)C(=O)N[C@@H](CCCNC(=N)N)C(=O)N[C@@H](C)C(=O)NCC(=O)NCC(=O)NCC(=O)NCC(=O)N[C@@H](CCCNC(=N)N)C(=O)NCC(=O)N[C@@H](CC(=O)O)C(=O)O [X18] (X63-RGADRAGGGGRGD-OH) | 5.67 ± 1.04 | 0.83 ± 0.15 | 3.81 ± 0.85 | 0.119 ± 0.011 | 43.87%*
